# Data published in patent US20250320194A1, “PHARMACEUTICALLY ACCEPTABLE SALT AND CRYSTAL FORM OF FUSED PYRIDINE RING DERIVATIVE AND PREPARATION METHOD THEREFOR” (Jiangsu Hengrui Pharmaceuticals Co., Ltd., priority 2021, published 2025).
# What was measured:
# [1] = Long-term/accelerated stability
# [2] = Stability under influencing factors (high temperature, high humidity, open, 30 days)
# [3] = Hygroscopicity of salt crystal forms (DVS, 25° C.); format: physicochemical; conditions: for Hygroscopicity 0.0% RH-95.0% RH / Hygroscopicity 20.0% RH-80.0% RH: DVS, 25° C.; for Crystal form: after DVS
# Description: The test adopts SMS DVS Advantage, at 25° C., with a humidity range of 0 to 95% and a step of 10%. The judgment standard is that the dM/dT of each gradient mass change is less than 0.002%, TMAX is 360 minutes, and the cycle is two times. • 5. Cation chromatography • Instrument model: DIONEX AQUION ion chromatograph, USA • Detection method: conductivity; separation column: IonPac CS16-CG16 • Eluent: MSA 20Mm • Flow rate: 1.0 ml/min • 6. Anion chromatography • Instrument model: DIONEX INTEGRION HPIC ion chromatograph, USA • Detection method: conductivity; separation column: DionexIonPac™-AS11-HC • Eluent: EGC-500-KOH • Flow rate: 1.5 ml/min
# Using Surface Measurement Systems advantage, at 25° C., the humidity starts from 50%, the humidity range is 0% to 95%, the step is 10%. The judgment standard was that the dM/dT of each gradient mass change is less than 0.002%, TMAX360 min, and the cycle was two times. The hygroscopicity of different salt crystal forms of the compound of formula I was investigated respectively.
smiles,measurement,setting,value
CC(C)(C#Cc1nc(C(Cc2cc(F)cc(F)c2)NC(=O)Cn2nc(C(F)(F)F)c3c2C(F)(F)C2CC32)c(-c2ccc(Cl)c3c(NS(C)(=O)=O)nn(CC(F)(F)F)c23)c2c1CCC2)S(C)(=O)=O.O=S(=O)(O)O (stereo not shown) [Crystal form A of hydrosulfate],Purity %,"[1]; 4° C., 1 month",99.09%
same,Purity %,"[1]; 4° C., 2 months",99.08%
same,Purity %,"[1]; 4° C., 3 months",99.08%
same,Purity %,"[1]; 4° C., 6 months",99.09%
same,Purity %,"[1]; 4° C., Start",99.09%
same,Purity %,"[1]; 25° C., 60% RH, 1 month",99.01%
same,Purity %,"[1]; 25° C., 60% RH, 2 months",98.99%
same,Purity %,"[1]; 25° C., 60% RH, 3 months",99.03%
same,Purity %,"[1]; 25° C., 60% RH, 6 months",98.91%
same,Purity %,"[1]; 25° C., 60% RH, Start",99.09%
same,Purity %,"[1]; 40° C., 75% RH, 1 month",98.83%
same,Purity %,"[1]; 40° C., 75% RH, 2 months",98.99%
same,Purity %,"[1]; 40° C., 75% RH, 3 months",98.98%
same,Purity %,"[1]; 40° C., 75% RH, 6 months",98.76%
same,Purity %,"[1]; 40° C., 75% RH, Start",99.09%
same,physical and chemical stability (conclusion),[1]; long-term accelerated stability conditions for 6 months,good physical and chemical stability
same,physical stability (conclusion),"[2]; 40° C., 60° C., 7500 RH and 92.5% RH, crystal form not transformed",good physical stability
same,chemical stability (conclusion),"[2]; 40° C., 7500 RH and 92.5%0 RH, not at high temperature (60° C.)",good chemical stability
same,"Color, properties","[2]; 40° C., 5 days",White solid
same,Crystal form,"[2]; 40° C., 5 days",Unchanged
same,Purity %,"[2]; 40° C., 5 days",99.06%
same,"Color, properties","[2]; 40° C., 10 days",White solid
same,Crystal form,"[2]; 40° C., 10 days",Unchanged
same,Purity %,"[2]; 40° C., 10 days",99.01%
same,"Color, properties","[2]; 40° C., 30 days",White solid
same,Crystal form,"[2]; 40° C., 30 days",Unchanged
same,Purity %,"[2]; 40° C., 30 days",99.03%
same,"Color, properties","[2]; 60° C., 5 days",White solid
same,Crystal form,"[2]; 60° C., 5 days",Unchanged
same,Purity %,"[2]; 60° C., 5 days",96.46%
same,"Color, properties","[2]; 60° C., 10 days",White solid
same,Crystal form,"[2]; 60° C., 10 days",Unchanged
same,Purity %,"[2]; 60° C., 10 days",96.22%
same,"Color, properties","[2]; 60° C., 30 days",White solid
same,Crystal form,"[2]; 60° C., 30 days",Unchanged
same,Purity %,"[2]; 60° C., 30 days",95.17%
same,"Color, properties","[2]; 75% RH, 5 days",White solid
same,Crystal form,"[2]; 75% RH, 5 days",Unchanged
same,Purity %,"[2]; 75% RH, 5 days",99.11%
same,"Color, properties","[2]; 75% RH, 10 days",White solid
same,Crystal form,"[2]; 75% RH, 10 days",Unchanged
same,Purity %,"[2]; 75% RH, 10 days",99.11%
same,"Color, properties","[2]; 75% RH, 30 days",White solid
same,Crystal form,"[2]; 75% RH, 30 days",Unchanged
same,Purity %,"[2]; 75% RH, 30 days",99.05%
same,"Color, properties","[2]; 92.5% RH, 5 days",White solid
same,Crystal form,"[2]; 92.5% RH, 5 days",Unchanged
same,Purity %,"[2]; 92.5% RH, 5 days",99.18%
same,"Color, properties","[2]; 92.5% RH, 10 days",White solid
same,Crystal form,"[2]; 92.5% RH, 10 days",Unchanged
same,Purity %,"[2]; 92.5% RH, 10 days",99.02%
same,"Color, properties","[2]; 92.5% RH, 30 days",White solid
same,Crystal form,"[2]; 92.5% RH, 30 days",Unchanged
same,Purity %,"[2]; 92.5% RH, 30 days",99.07%
same,"Color, properties","[2]; Start, 0 days",White solid
same,Purity %,"[2]; Start, 0 days",99.09%
same,Hygroscopicity 0.0% RH-95.0% RH,[3],4.55%
same,Hygroscopicity 20.0% RH-80.0% RH,[3],1.59%
same,Crystal form,[3],Unchanged
CC(C)(C#Cc1nc(C(Cc2cc(F)cc(F)c2)NC(=O)Cn2nc(C(F)(F)F)c3c2C(F)(F)C2CC32)c(-c2ccc(Cl)c3c([N-]S(C)(=O)=O)nn(CC(F)(F)F)c23)c2c1CCC2)S(C)(=O)=O.C[N+](C)(C)CCO (stereo not shown) [Crystal form B of the choline salt],"Color, properties","[2]; 40° C., 5 days",White solid
same,Crystal form,"[2]; 40° C., 5 days",Unchanged
same,Purity %,"[2]; 40° C., 5 days",98.34%
same,"Color, properties","[2]; 40° C., 10 days",White solid
same,Crystal form,"[2]; 40° C., 10 days",Unchanged
same,Purity %,"[2]; 40° C., 10 days",98.33%
same,"Color, properties","[2]; 40° C., 30 days",White solid
same,Crystal form,"[2]; 40° C., 30 days",Unchanged
same,Purity %,"[2]; 40° C., 30 days",98.35%
same,"Color, properties","[2]; 60° C., 5 days",White solid
same,Crystal form,"[2]; 60° C., 5 days",Unchanged
same,Purity %,"[2]; 60° C., 5 days",98.39%
same,"Color, properties","[2]; 60° C., 10 days",White solid
same,Crystal form,"[2]; 60° C., 10 days",Unchanged
same,Purity %,"[2]; 60° C., 10 days",98.36%
same,"Color, properties","[2]; 60° C., 30 days",White solid
same,Crystal form,"[2]; 60° C., 30 days",Unchanged
same,Purity %,"[2]; 60° C., 30 days",98.36%
same,"Color, properties","[2]; 75% RH, 5 days",White solid
same,Crystal form,"[2]; 75% RH, 5 days",Unchanged
same,Purity %,"[2]; 75% RH, 5 days",98.35%
same,"Color, properties","[2]; 75% RH, 10 days",White solid
same,Crystal form,"[2]; 75% RH, 10 days",Unchanged
same,Purity %,"[2]; 75% RH, 10 days",98.35%
same,"Color, properties","[2]; 75% RH, 30 days",White solid
same,Crystal form,"[2]; 75% RH, 30 days",Unchanged
same,Purity %,"[2]; 75% RH, 30 days",98.36%
same,"Color, properties","[2]; 92.5% RH, 5 days",White solid
same,Crystal form,"[2]; 92.5% RH, 5 days",Unchanged
same,Purity %,"[2]; 92.5% RH, 5 days",98.45%
same,"Color, properties","[2]; 92.5% RH, 10 days",White solid
same,Crystal form,"[2]; 92.5% RH, 10 days",Unchanged
same,Purity %,"[2]; 92.5% RH, 10 days",98.34%
same,"Color, properties","[2]; 92.5% RH, 30 days",White solid
same,Crystal form,"[2]; 92.5% RH, 30 days",Unchanged
same,Purity %,"[2]; 92.5% RH, 30 days",98.35%
same,"Color, properties","[2]; Start, 0 days",White solid
same,Purity %,"[2]; Start, 0 days",98.34%
same,Hygroscopicity 0.0% RH-95.0% RH,[3],9.92%
same,Hygroscopicity 20.0% RH-80.0% RH,[3],5.96%
same,Crystal form,[3],Unchanged
CC(C)(C#Cc1nc(C(Cc2cc(F)cc(F)c2)NC(=O)Cn2nc(C(F)(F)F)c3c2C(F)(F)C2CC32)c(-c2ccc(Cl)c3c([N-]S(C)(=O)=O)nn(CC(F)(F)F)c23)c2c1CCC2)S(C)(=O)=O.[Na+] (stereo not shown) [Crystal form IV of the sodium salt],Hygroscopicity 0.0% RH-95.0% RH,[3],1.03%
same,Hygroscopicity 20.0% RH-80.0% RH,[3],0.45%
same,Crystal form,[3],changed
